In patent US20250353891A1 (MEDIMMUNE LIMITED, priority 2022, published 2025):
Starred links: 1 amine or outer side, 2 acyl side, 3 side chain; linkers in the order of their positions; H or OH if unused. Non-standard residues stand in square brackets, D forms with d. Residues, ends and D or L forms follow the SMILES beside them. Groups on a side chain read outwards from the residue. *: point of attachment. Heptadecanoyl = CCCCCCCCCCCCCCCCC(=O)*; γGlu = O=C(O)[C@H](CCC(=O)[*:2])N[*:1]; Stearoyl = CCCCCCCCCCCCCCCCCC(=O)*; Palmitoyl = CCCCCCCCCCCCCCCC(=O)*; αMeF = C[C@](N)(Cc1ccccc1)C(=O)O; PEG2 = NCCOCCOCCC(=O)O; Aib = CC(C)(N)C(=O)O

Experiments:
[1] = target: human GLP-1 receptor (hGLP-1R) (Homo sapiens, UniProt P43220); experiment: cAMP production (HTRF) in CHO cells expressing hGLP-1R; type: cell-based; design: expressed in transfected cells; details: for EC50: Table 6, peptides modified at position 17, cAMP in CHO hGLP-1R cells, geometric mean, read-out: hGLP-1R EC50; for % Relative Potency Ratio: Table 6, % GLP-1R activity relative to GLP-1 / % GlucR activity relative to glucagon
human GLP-1 receptor (hGLP-1R), sequence (P43220 24-463): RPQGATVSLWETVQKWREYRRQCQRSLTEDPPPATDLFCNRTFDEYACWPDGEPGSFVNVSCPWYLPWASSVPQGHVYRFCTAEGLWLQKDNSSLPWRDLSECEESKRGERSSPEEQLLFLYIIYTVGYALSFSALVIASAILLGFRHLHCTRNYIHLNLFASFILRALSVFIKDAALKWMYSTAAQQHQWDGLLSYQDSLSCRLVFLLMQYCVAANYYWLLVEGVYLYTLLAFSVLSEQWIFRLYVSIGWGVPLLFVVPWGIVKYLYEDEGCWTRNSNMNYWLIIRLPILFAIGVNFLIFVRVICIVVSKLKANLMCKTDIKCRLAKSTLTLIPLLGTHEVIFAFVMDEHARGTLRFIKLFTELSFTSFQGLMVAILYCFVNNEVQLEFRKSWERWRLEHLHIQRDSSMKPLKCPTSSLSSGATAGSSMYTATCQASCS
Method in brief: (§1)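 Cells were resuspended in assay buffer at batch-optimized density, typically 1×10^5 cells/mL for hGLP-1R and 2×10^5 cells/mL for hGCGR. After 30 min incubation at room temperature with compound, cAMP was measured by two-step HTRF. EC50 values came from 4-parameter logistic fits of % Delta F.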

[2] = target: human glucagon receptor (hGCGR) (Homo sapiens, UniProt P47871); experiment: cAMP production (HTRF) in CHO cells expressing hGCGR; type: cell-based; design: expressed in transfected cells; details: Table 6, peptides modified at position 17; cAMP in CHO hGCGR cells; geometric mean; read-out: hGluc-R EC50
human glucagon receptor (hGCGR), sequence (P47871 26-477): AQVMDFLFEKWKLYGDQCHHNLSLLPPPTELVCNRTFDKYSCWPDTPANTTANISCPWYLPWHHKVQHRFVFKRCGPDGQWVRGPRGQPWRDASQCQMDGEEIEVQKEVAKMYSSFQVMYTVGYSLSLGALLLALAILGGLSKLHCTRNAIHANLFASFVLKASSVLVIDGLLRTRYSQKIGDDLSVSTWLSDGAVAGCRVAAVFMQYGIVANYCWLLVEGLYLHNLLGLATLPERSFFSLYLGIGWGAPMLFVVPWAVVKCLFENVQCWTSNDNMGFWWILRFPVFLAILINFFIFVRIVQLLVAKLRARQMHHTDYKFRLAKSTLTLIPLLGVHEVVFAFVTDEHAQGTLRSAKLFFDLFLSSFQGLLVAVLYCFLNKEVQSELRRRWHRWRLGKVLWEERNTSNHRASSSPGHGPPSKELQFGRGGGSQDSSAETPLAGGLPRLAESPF
Method in brief: as §1

Row | Compound | EC50 [1] | % Relative Potency Ratio [1] | EC50 [2]
1 | CCCCCCCCCCCCCCCCCC(=O)N[C@@H](CCC(=O)N[C@@H](CCC(=O)NCCOCCOCCC(=O)NCCOCCOCCC(=O)NCCCC[C@H](NC(=O)[C@H](CO)NC(=O)[C@H](CC(=O)O)NC(=O)[C@H](CC(C)C)NC(=O)[C@](C)(Cc1ccccc1)NC(=O)[C@H](CCCCN)NC(=O)[C@H](CO)NC(=O)[C@@H](NC(=O)[C@H](CC(=O)O)NC(=O)[C@H](CO)NC(=O)[C@@H](NC(=O)[C@](C)(Cc1ccccc1)NC(=O)[C@H](CO)NC(=O)CNC(=O)[C@H](CCC(N)=O)NC(=O)[C@H](CO)NC(=O)[C@@H](N)Cc1c[nH]cn1)[C@@H](C)O)C(C)C)C(=O)N[C@@H](C)C(=O)N[C@@H](C)C(=O)N[C@@H](CCC(N)=O)C(=O)N[C@@H](CC(=O)O)C(=O)N[C@@](C)(Cc1ccccc1)C(=O)N[C@H](C(=O)N[C@@H](CCC(N)=O)C(=O)NC(C)(C)C(=O)N[C@H](C(=O)N[C@H](C(=O)N[C@@H](CCC(=O)O)C(=O)NCC(=O)NCC(N)=O)C(C)C)C(C)C)C(C)C)C(=O)O)C(=O)O [Peptide 85] (H-HSQGS[αMeF]TSDVSK[αMeF]LDSK([PEG2-PEG2-γGlu-γGlu-Stearoyl])AAQD[αMeF]VQ[Aib]VVEGG-NH2; N-terminus assumed) | 1.04 pM | 90.9 | 47.7 pM
2 | CCCCCCCCCCCCCCCC(=O)N[C@@H](CCC(=O)N[C@@H](CCC(=O)NCCOCCOCCC(=O)NCCOCCOCCC(=O)NCCCC[C@H](NC(=O)[C@H](CO)NC(=O)[C@H](CC(=O)O)NC(=O)[C@H](CC(C)C)NC(=O)[C@](C)(Cc1ccccc1)NC(=O)[C@H](CCCCN)NC(=O)[C@H](CO)NC(=O)[C@@H](NC(=O)[C@H](CC(=O)O)NC(=O)[C@H](CO)NC(=O)[C@@H](NC(=O)[C@](C)(Cc1ccccc1)NC(=O)[C@H](CO)NC(=O)CNC(=O)[C@H](CCC(N)=O)NC(=O)[C@H](CO)NC(=O)[C@@H](N)Cc1c[nH]cn1)[C@@H](C)O)C(C)C)C(=O)N[C@@H](C)C(=O)N[C@@H](C)C(=O)N[C@@H](CCC(N)=O)C(=O)N[C@@H](CC(=O)O)C(=O)N[C@@](C)(Cc1ccccc1)C(=O)N[C@H](C(=O)N[C@@H](CCC(N)=O)C(=O)NC(C)(C)C(=O)N[C@H](C(=O)N[C@@H](C)C(=O)N[C@@H](CC(N)=O)C(N)=O)[C@@H](C)CC)C(C)C)C(=O)O)C(=O)O [Peptide 87] (H-HSQGS[αMeF]TSDVSK[αMeF]LDSK([PEG2-PEG2-γGlu-γGlu-Palmitoyl])AAQD[αMeF]VQ[Aib]IAN-NH2; N-terminus assumed) | 1.29 pM | 13.0 | 8.46 pM
3 | CCCCCCCCCCCCCCCCCC(=O)N[C@@H](CCC(=O)N[C@@H](CCC(=O)NCCOCCOCCC(=O)NCCOCCOCCC(=O)NCCCC[C@H](NC(=O)[C@H](CO)NC(=O)[C@H](CC(=O)O)NC(=O)[C@H](CC(C)C)NC(=O)C(C)(C)NC(=O)[C@H](CCCCN)NC(=O)[C@H](CO)NC(=O)[C@@H](NC(=O)[C@H](CC(=O)O)NC(=O)[C@H](CO)NC(=O)[C@@H](NC(=O)[C@](C)(Cc1ccccc1)NC(=O)[C@H](CO)NC(=O)CNC(=O)[C@H](CCC(N)=O)NC(=O)[C@H](CO)NC(=O)[C@@H](N)Cc1c[nH]cn1)[C@@H](C)O)C(C)C)C(=O)N[C@@H](C)C(=O)N[C@@H](C)C(=O)N[C@@H](CCC(N)=O)C(=O)N[C@@H](CC(=O)O)C(=O)N[C@@](C)(Cc1ccccc1)C(=O)N[C@H](C(=O)N[C@@H](CCC(N)=O)C(=O)NC(C)(C)C(=O)N[C@@H](CC(C)C)C(=O)N[C@@H](CCC(=O)O)C(=O)N[C@@H](C)C(N)=O)C(C)C)C(=O)O)C(=O)O [Peptide 92] (H-HSQGS[αMeF]TSDVSK[Aib]LDSK([PEG2-PEG2-γGlu-γGlu-Stearoyl])AAQD[αMeF]VQ[Aib]LEA-NH2; N-terminus assumed) |  | 24.1 | 10.9 pM
4 | CCCCCCCCCCCCCCCCCC(=O)N[C@@H](CCC(=O)N[C@@H](CCC(=O)NCCOCCOCCC(=O)NCCOCCOCCC(=O)NCCCC[C@H](NC(=O)[C@H](CO)NC(=O)[C@H](CC(=O)O)NC(=O)[C@H](CC(C)C)NC(=O)C(C)(C)NC(=O)[C@H](CCCCN)NC(=O)[C@H](CO)NC(=O)[C@@H](NC(=O)[C@H](CC(=O)O)NC(=O)[C@H](CO)NC(=O)[C@@H](NC(=O)[C@](C)(Cc1ccccc1)NC(=O)[C@H](CO)NC(=O)CNC(=O)[C@H](CCC(N)=O)NC(=O)[C@H](CO)NC(=O)[C@@H](N)Cc1c[nH]cn1)[C@@H](C)O)C(C)C)C(=O)N[C@@H](C)C(=O)N[C@@H](C)C(=O)N[C@@H](CCC(N)=O)C(=O)N[C@@H](CC(=O)O)C(=O)N[C@@](C)(Cc1ccccc1)C(=O)N[C@H](C(=O)N[C@@H](CCC(N)=O)C(=O)NC(C)(C)C(=O)N[C@@H](CC(C)C)C(=O)N[C@@H](C)C(=O)N[C@@H](CC(N)=O)C(N)=O)C(C)C)C(=O)O)C(=O)O [Peptide 93] (H-HSQGS[αMeF]TSDVSK[Aib]LDSK([PEG2-PEG2-γGlu-γGlu-Stearoyl])AAQD[αMeF]VQ[Aib]LAN-NH2; N-terminus assumed) |  | 37.4 | 8.92 pM

The next compounds have a lower EC50 [2] than those just listed; values first:

Row | EC50 [1] | % Relative Potency Ratio [1] | EC50 [2] | Compound
5 | 1.87 pM | 7.0 | 6.61 pM | CCCCCCCCCCCCCCCC(=O)N[C@@H](CCC(=O)N[C@@H](CCC(=O)NCCOCCOCCC(=O)NCCOCCOCCC(=O)NCCCC[C@H](NC(=O)[C@H](CO)NC(=O)[C@H](CC(=O)O)NC(=O)[C@H](CC(C)C)NC(=O)[C@](C)(Cc1ccccc1)NC(=O)[C@H](CCCCN)NC(=O)[C@H](CO)NC(=O)[C@@H](NC(=O)[C@H](CC(=O)O)NC(=O)[C@H](CO)NC(=O)[C@@H](NC(=O)[C@](C)(Cc1ccccc1)NC(=O)[C@H](CO)NC(=O)CNC(=O)[C@H](CCC(N)=O)NC(=O)[C@H](CO)NC(=O)[C@@H](N)Cc1c[nH]cn1)[C@@H](C)O)C(C)C)C(=O)N[C@@H](C)C(=O)N[C@@H](C)C(=O)N[C@@H](CCC(N)=O)C(=O)N[C@@H](CC(=O)O)C(=O)N[C@@](C)(Cc1ccccc1)C(=O)N[C@H](C(=O)N[C@@H](CCC(=O)O)C(=O)NC(C)(C)C(=O)N[C@H](C(=O)N[C@@H](C)C(=O)N[C@@H](CC(N)=O)C(N)=O)[C@@H](C)CC)C(C)C)C(=O)O)C(=O)O [Peptide 90] (H-HSQGS[αMeF]TSDVSK[αMeF]LDSK([PEG2-PEG2-γGlu-γGlu-Palmitoyl])AAQD[αMeF]VE[Aib]IAN-NH2; N-terminus assumed)
6 | 1.04 pM | 12.3 | 6.47 pM | CCCCCCCCCCCCCCCCC(=O)N[C@@H](CCC(=O)N[C@@H](CCC(=O)NCCOCCOCCC(=O)NCCOCCOCCC(=O)NCCCC[C@H](NC(=O)[C@H](CO)NC(=O)[C@H](CC(=O)O)NC(=O)[C@H](CC(C)C)NC(=O)[C@](C)(Cc1ccccc1)NC(=O)[C@H](CCCCN)NC(=O)[C@H](CO)NC(=O)[C@@H](NC(=O)[C@H](CC(=O)O)NC(=O)[C@H](CO)NC(=O)[C@@H](NC(=O)[C@](C)(Cc1ccccc1)NC(=O)[C@H](CO)NC(=O)CNC(=O)[C@H](CCC(N)=O)NC(=O)[C@H](CO)NC(=O)[C@@H](N)Cc1c[nH]cn1)[C@@H](C)O)C(C)C)C(=O)N[C@@H](C)C(=O)N[C@@H](C)C(=O)N[C@@H](CCC(N)=O)C(=O)N[C@@H](CC(=O)O)C(=O)N[C@@](C)(Cc1ccccc1)C(=O)N[C@H](C(=O)N[C@@H](CCC(N)=O)C(=O)NC(C)(C)C(=O)N[C@H](C(=O)N[C@@H](C)C(=O)N[C@@H](CC(N)=O)C(N)=O)[C@@H](C)CC)C(C)C)C(=O)O)C(=O)O [Peptide 88] (H-HSQGS[αMeF]TSDVSK[αMeF]LDSK([PEG2-PEG2-γGlu-γGlu-Heptadecanoyl])AAQD[αMeF]VQ[Aib]IAN-NH2; N-terminus assumed)
7 |  | 16.6 | 6.46 pM | CCCCCCCCCCCCCCCCCC(=O)N[C@@H](CCC(=O)N[C@@H](CCC(=O)NCCOCCOCCC(=O)NCCOCCOCCC(=O)NCCCC[C@H](NC(=O)[C@H](CO)NC(=O)[C@H](CC(=O)O)NC(=O)[C@H](CC(C)C)NC(=O)[C@](C)(Cc1ccccc1)NC(=O)[C@H](CCCCN)NC(=O)[C@H](CO)NC(=O)[C@@H](NC(=O)[C@H](CC(=O)O)NC(=O)[C@H](CO)NC(=O)[C@@H](NC(=O)[C@](C)(Cc1ccccc1)NC(=O)[C@H](CO)NC(=O)CNC(=O)[C@H](CCC(N)=O)NC(=O)[C@H](CO)NC(=O)[C@@H](N)Cc1c[nH]cn1)[C@@H](C)O)C(C)C)C(=O)N[C@@H](C)C(=O)N[C@@H](C)C(=O)N[C@@H](CCC(N)=O)C(=O)N[C@@H](CC(=O)O)C(=O)N[C@@](C)(Cc1ccccc1)C(=O)N[C@H](C(=O)N[C@@H](CCC(N)=O)C(=O)NC(C)(C)C(=O)N[C@H](C(=O)N[C@@H](C)C(=O)N[C@@H](CC(N)=O)C(N)=O)[C@@H](C)CC)C(C)C)C(=O)O)C(=O)O [Peptide 86] (H-HSQGS[αMeF]TSDVSK[αMeF]LDSK([PEG2-PEG2-γGlu-γGlu-Stearoyl])AAQD[αMeF]VQ[Aib]IAN-NH2; N-terminus assumed)
8 |  | 20.7 | 5.4 pM | CCCCCCCCCCCCCCCCCC(=O)N[C@@H](CCC(=O)N[C@@H](CCC(=O)NCCOCCOCCC(=O)NCCOCCOCCC(=O)NCCCC[C@H](NC(=O)[C@H](CO)NC(=O)[C@H](CC(=O)O)NC(=O)[C@H](CC(C)C)NC(=O)C(C)(C)NC(=O)[C@H](CCCCN)NC(=O)[C@H](CO)NC(=O)[C@@H](NC(=O)[C@H](CC(=O)O)NC(=O)[C@H](CO)NC(=O)[C@@H](NC(=O)[C@](C)(Cc1ccccc1)NC(=O)[C@H](CO)NC(=O)CNC(=O)[C@H](CCC(N)=O)NC(=O)[C@H](CO)NC(=O)[C@@H](N)Cc1c[nH]cn1)[C@@H](C)O)C(C)C)C(=O)N[C@@H](C)C(=O)N[C@@H](C)C(=O)N[C@@H](CCC(N)=O)C(=O)N[C@@H](CC(=O)O)C(=O)N[C@@](C)(Cc1ccccc1)C(=O)N[C@H](C(=O)N[C@@H](CCC(N)=O)C(=O)NC(C)(C)C(=O)N[C@@H](CC(C)C)C(=O)N[C@@H](CO)C(=O)N[C@@H](CCC(=O)O)C(N)=O)C(C)C)C(=O)O)C(=O)O [Peptide 94] (H-HSQGS[αMeF]TSDVSK[Aib]LDSK([PEG2-PEG2-γGlu-γGlu-Stearoyl])AAQD[αMeF]VQ[Aib]LSE-NH2; N-terminus assumed)
